Experimental data taken from BindingDB's records for patent US20240360134 (Actelion Pharmaceuticals, 2024).
pIC50: −log10 of the molar value.

Legend:
[1] = molecular target: T1, Platelet-derived growth factor receptor beta (Homo sapiens, UniProt P09619); test: PDGFRβ LanthaScreen Assay
Description: Dispensing inhibitors: Using Echo, dispense 40 nL/well (or less) compound serial dilutions in DMSO onto the assay plate.Step 2. Dispensing Kinase-Tracer solution: Add 4 μL/well Kinase-Tracer solution. Seal the plate with optically transparent plate seal. […] Detection: Read TR-FRET signals after 18 hours incubation at room temperature.III. […] IC50 values are determined from a 4-parameter fit, using the following equation: Y=Bottom+(Top−Bottom)/(1+10((Log IC50−X)*Hill slope)), where X=log10 of the compound concentration; top can be defined by PC; bottom defined by NC.

[2] = molecular target: T1, Platelet-derived growth factor receptor beta; test: PDGFRβ HTRF Assay
Description: PDGFRβ E+I pre-incubation: Add 2 μL 2× protein solution to columns 1-24 using the Multidrop Combi. Centrifuge at 1000 rpm for 1 min. Incubate 30 min at RTStep 2. Enzymatic reaction: Add 2 μL substrate solution to columns 1-24 to initiate the reaction using the Multidrop Combi; cover/seal the assay plate to reduce evaporation. Centrifuge at 1000 rpm for 1 min. […] Quench/Detection: Add 2 μl 3× quench/detection solution to columns 1-24 using the Multidrop Combi; cover/seal the plate. Centrifuge 1 min 1000 rpm. Incubate at RT for 60 min.

[3] = molecular target: Vascular endothelial growth factor receptor 2 (Homo sapiens, UniProt P35968); test: VEGFR ADP GLO Assay
Sequence of Vascular endothelial growth factor receptor 2 (P35968 whole entry): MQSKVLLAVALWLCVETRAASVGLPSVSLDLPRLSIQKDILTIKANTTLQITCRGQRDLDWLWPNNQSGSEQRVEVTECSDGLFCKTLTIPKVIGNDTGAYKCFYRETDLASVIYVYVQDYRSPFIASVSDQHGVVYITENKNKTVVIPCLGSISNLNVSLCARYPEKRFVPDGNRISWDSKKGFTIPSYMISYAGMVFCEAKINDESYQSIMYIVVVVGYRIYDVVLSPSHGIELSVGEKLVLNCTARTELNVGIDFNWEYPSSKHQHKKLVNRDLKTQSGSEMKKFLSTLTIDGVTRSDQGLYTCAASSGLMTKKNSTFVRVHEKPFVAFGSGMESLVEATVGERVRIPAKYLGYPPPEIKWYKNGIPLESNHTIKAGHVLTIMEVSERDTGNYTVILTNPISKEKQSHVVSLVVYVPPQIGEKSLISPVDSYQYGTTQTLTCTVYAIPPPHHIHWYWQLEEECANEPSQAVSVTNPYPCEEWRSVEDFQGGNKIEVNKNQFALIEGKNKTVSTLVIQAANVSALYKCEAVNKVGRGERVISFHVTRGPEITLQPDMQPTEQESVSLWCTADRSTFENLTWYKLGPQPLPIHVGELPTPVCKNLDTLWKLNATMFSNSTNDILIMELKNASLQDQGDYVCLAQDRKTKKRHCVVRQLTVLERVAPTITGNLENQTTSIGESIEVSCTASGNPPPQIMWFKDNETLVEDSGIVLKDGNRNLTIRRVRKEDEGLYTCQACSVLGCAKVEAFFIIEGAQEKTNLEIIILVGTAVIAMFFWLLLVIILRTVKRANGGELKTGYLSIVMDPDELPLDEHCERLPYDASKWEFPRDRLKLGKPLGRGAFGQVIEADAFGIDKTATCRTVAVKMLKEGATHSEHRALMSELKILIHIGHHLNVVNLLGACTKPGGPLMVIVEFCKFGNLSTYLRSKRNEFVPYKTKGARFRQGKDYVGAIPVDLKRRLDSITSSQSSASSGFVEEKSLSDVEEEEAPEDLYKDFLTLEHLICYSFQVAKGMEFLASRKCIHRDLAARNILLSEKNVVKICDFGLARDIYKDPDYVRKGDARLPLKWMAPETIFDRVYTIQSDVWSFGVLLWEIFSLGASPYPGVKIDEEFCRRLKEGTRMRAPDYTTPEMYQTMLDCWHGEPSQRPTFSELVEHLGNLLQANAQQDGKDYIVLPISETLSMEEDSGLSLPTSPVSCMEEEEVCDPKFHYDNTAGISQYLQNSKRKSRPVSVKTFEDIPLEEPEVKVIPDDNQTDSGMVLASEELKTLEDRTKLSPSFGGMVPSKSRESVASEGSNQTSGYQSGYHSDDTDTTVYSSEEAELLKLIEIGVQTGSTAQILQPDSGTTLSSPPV
Description: Step 1. Dispensing inhibitors/controls: Using Echo, dispense 10 nL/well compound serial dilutions in DMSO to columns 1-22 (in 384-well plates) or columns 1-44 (in 1536-well plates). Dilution series=11 pt, 3-fold dilutions. The top compound concentration in the source plate is […]. The top compound concentration in the assay plate is 10 uM. Using Echo, dispense 10 nl/well DMSO to column 23 (in 384-well plates) or columns 45-47 (in 1536-well plates). These wells will serve as negative control wells Using Echo, dispense 10 nl/well 400 uM TAK-593 in DMSO to column 24 (in 384-well plates) or column 48 (in 1536-well plates). The final concentration of TAK-593 in the assay should be 1 uM. These wells will serve as positive control wells.Step 2. Pre-incubation of inhibitors with kinase: Add 2 μL/well 2× kinase solution. Centrifuge at 1000 rpm for 1 min. Incubate at room temperature for 30 min.Step 3. Kinase cascade reaction: Add 2 μL/well 2× substrate/ATP solution to initiate kinase reactions. Centrifuge at 1000 rpm for 1 min. Incubate at room temperature for 180 min.Final concentrations of components in the assay:[VEGFR2]=5 nM;[ATP]=1.2 mM;[Srctide]=1 mg/mL;[DMSO]≤1%.Step 4. Quench: Add 2 uL/well ADP Glo Reagent+0.05% CHAPS. Centrifuge at 1000 rpm for 1 min; Incubate at room temperature for one hour.Step 5. Detection: Add 2 uL/well Kinase Detection Reagent+0.05% CHAPS. Centrifuge at 1000 rpm for 1 min; Incubate at room temperature for 1 hour; Read Luminescence on a plate reader.

T1 sequence (P09619 whole entry): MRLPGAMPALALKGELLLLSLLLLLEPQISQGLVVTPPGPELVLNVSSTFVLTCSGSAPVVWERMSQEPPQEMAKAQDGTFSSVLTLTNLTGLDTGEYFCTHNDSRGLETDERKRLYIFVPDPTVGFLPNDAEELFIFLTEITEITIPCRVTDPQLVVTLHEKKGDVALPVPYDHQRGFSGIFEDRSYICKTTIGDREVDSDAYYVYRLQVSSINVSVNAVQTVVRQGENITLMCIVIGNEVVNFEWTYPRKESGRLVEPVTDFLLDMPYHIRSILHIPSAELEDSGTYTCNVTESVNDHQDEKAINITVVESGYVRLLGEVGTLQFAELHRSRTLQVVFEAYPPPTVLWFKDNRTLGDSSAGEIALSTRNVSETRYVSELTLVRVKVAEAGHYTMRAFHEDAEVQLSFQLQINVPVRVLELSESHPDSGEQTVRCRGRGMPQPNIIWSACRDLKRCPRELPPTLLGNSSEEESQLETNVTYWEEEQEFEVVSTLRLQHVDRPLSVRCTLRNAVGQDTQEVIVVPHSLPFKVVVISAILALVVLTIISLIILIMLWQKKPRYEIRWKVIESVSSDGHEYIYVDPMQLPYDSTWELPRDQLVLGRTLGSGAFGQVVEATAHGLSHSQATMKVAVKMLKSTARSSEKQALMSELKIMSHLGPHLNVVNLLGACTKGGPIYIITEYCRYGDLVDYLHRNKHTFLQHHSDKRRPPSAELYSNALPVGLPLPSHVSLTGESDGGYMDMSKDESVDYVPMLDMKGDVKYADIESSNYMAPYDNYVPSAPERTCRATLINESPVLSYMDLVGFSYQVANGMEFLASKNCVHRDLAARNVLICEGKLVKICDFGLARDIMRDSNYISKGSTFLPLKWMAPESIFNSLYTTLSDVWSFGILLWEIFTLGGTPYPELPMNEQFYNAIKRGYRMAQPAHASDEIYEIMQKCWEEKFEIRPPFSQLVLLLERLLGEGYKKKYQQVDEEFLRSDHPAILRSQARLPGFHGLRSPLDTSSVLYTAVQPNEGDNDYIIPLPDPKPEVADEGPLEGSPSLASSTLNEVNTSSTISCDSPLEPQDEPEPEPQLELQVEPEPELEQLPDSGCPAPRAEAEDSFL

Cc1ncc(NC(=O)CN2C[C@H](C)O[C@@H](C)C2)cc1Nc1nn(C)c2nc(Nc3cnn(C)c3)ncc12 (relative stereo) [US20240360134, Example 73]
pIC50 [1]: 8.59 | pIC50 [2]: 9.30 | pIC50 [3]: 5.34

COC(=O)Cc1cccc(Nc2ncc3c(Nc4cc(C(=O)NCCN5CCCC5(C)C)cnc4C)nn(C)c3n2)c1 [US20240360134, Example 43]
pIC50 [1]: 8.39 | pIC50 [2]: 9.27 | pIC50 [3]: 5.68

COC(=O)C(C)(C)c1cccc(Nc2ncc3c(Nc4cc(C(=O)NCCN5CCCC5(C)C)cnc4C)nn(C)c3n2)c1 [US20240360134, Example 46]
pIC50 [1]: 8.31 | pIC50 [2]: 9.09 | pIC50 [3]: 5.45

Cc1ncc(NC(=O)CN2CCC[C@@H]2C)cc1Nc1nn(C)c2nc(Nc3cnn(C)c3)ncc12 [US20240360134, Example 71]
pIC50 [1]: 8.68 | pIC50 [2]: 9.60 | pIC50 [3]: < 5.12

Cc1ncc(NC(=O)CN2CCC(F)(F)CC2)cc1Nc1nn(C)c2nc(Nc3cnn(C)c3)ncc12 [US20240360134, Example 72]
pIC50 [1]: 8.77 | pIC50 [2]: 9.57 | pIC50 [3]: 5.96

Cc1ncc(NC(=O)CN2CCC3(CC3)C2)cc1Nc1nn(C)c2nc(Nc3cnn(C)c3)ncc12 [US20240360134, Example 74]
pIC50 [1]: 8.80 | pIC50 [2]: 9.64 | pIC50 [3]: 5.30

Cc1ncc(NC(=O)CN2CCC(F)(F)C2)cc1Nc1nn(C)c2nc(Nc3cnn(C)c3)ncc12 [US20240360134, Example 75]
pIC50 [1]: 8.68 | pIC50 [2]: 9.46 | pIC50 [3]: 6.07

Cc1ncc(NC(=O)CN2CC(F)(F)C2)cc1Nc1nn(C)c2nc(Nc3cnn(C)c3)ncc12 [US20240360134, Example 76]
pIC50 [1]: 8.59 | pIC50 [2]: 9.38 | pIC50 [3]: 5.44

Cc1ncc(NC(=O)CN2C[C@@H](C)O[C@@H](C)C2)cc1Nc1nn(C)c2nc(Nc3cnn(C)c3)ncc12 [US20240360134, Example 78]
pIC50 [1]: 8.43 | pIC50 [2]: 9.23 | pIC50 [3]: 5.41

Cc1ncc(NC(=O)CN(CCO)C2CCCC2)cc1Nc1nn(C)c2nc(Nc3cnn(C)c3)ncc12 [US20240360134, Example 79]
pIC50 [1]: 8.60 | pIC50 [3]: 5.27

Cc1ncc(NC(=O)CN(CCCO)C2CCCC2)cc1Nc1nn(C)c2nc(Nc3cnn(C)c3)ncc12 [US20240360134, Example 80]
pIC50 [1]: 8.49 | pIC50 [2]: 9.30 | pIC50 [3]: < 5.12
